According to CN110194737A, “一种联水杨醛缩3-氯-2-肼基吡啶席夫碱合成方法与应用” (Harbin University of Science and Technology, priority 2019, dated 2019):

Key:
[1] = Fluorescence titration of the Schiff base probe with Zn2+ (Examples 2-7, FIG. 4); details: for fluorescence intensity: probe 2×10^-5mol/L in methanol, 3mL, EX=350nm, EM=475nm
[2] = Qualitative/selective recognition of metal ions by the probe, Zn2+ (FIG. 6)
[3] = Quantitative analysis of Zn2+: linear relation of fluorescence intensity and Zn2+ concentration, detection limit (Examples 8-11, FIG. 5)
[4] = Anti-interference of the probe for Zn2+ in the presence of other metal ions (FIG. 7); details: for fluorescence intensity: EX=350nm, EM=475nm
[5] = Qualitative/selective recognition of metal ions by the probe, Cd2+ (FIG. 6); details: 100uL of 1×10^-2mol/L Cd2+; probe solution 3mL; EX=350nm, EM=475nm

**Q.** For `CC(C)(C)c1cc(C=NNc2ncccc2Cl)c(O)c(-c2cc(C(C)(C)C)cc(C=NNc3ncccc3Cl)c2O)c1` [荧光探针, 5,5'-二叔丁基-2,2'-二羟基联苯-3,3'-二甲醛缩3-氯-2-肼基吡啶席夫碱], which fluorescence intensity ([1]; 1μL of 1×10^-2mol/L Zn2+ added) is on record?
**A.** Its fluorescence intensity is 83.56.

**Q.** And the fluorescence intensity ([1]; 6μL of 1×10^-2mol/L Zn2+ added)?
**A.** The fluorescence intensity was 468.2.

**Q.** What about the fluorescence intensity ([1]; 12μL of 1×10^-2mol/L Zn2+ added) of the same molecule?
**A.** The fluorescence intensity was 852.4.

**Q.** What about the fluorescence intensity ([1]; 18μL of 1×10^-2mol/L Zn2+ added) of the same molecule?
**A.** The fluorescence intensity was 952.4.

**Q.** What about the “visible change under UV lamp” value ([1]; 365nm, after recognition of Zn2+) of the same molecule?
**A.** Its value is “在紫外灯365nm下即可看到明显变化”.

**Q.** And the “fluorescence intensity enhancement relative to blank” value ([1]; after recognition of Zn2+ (18μL of 1×10^-2mol/L Zn2+) vs probe blank)?
**A.** The value was 34 fold.

**Q.** What about the fluorescence intensity ([1]; probe blank solution without Zn2+, slits 5nm) of the same molecule?
**A.** Its fluorescence intensity is 28.02.

**Q.** What about the fluorescence intensity ([2]; 100uL of 1×10^-2mol/L Zn2+, probe solution 3mL, EX=350nm, EM=475nm) of the same molecule?
**A.** The fluorescence intensity was 923.5.

**Q.** And the “selectivity of recognition of Zn2+” value ([2]; vs 18 other metal ions, 100uL of 1×10^-2mol/L each)?
**A.** Its value is “较好的选择性”.

**Q.** What about the fluorescence intensity ([3]; Zn2+ 30μM in the system, EX=350nm, EM=475nm) of the same molecule?
**A.** The fluorescence intensity was 119.8.

**Q.** What about the fluorescence intensity ([3]; Zn2+ 50μM in the system, EX=350nm, EM=475nm) of the same molecule?
**A.** Its fluorescence intensity is 440.2.

**Q.** And the fluorescence intensity ([3]; Zn2+ 70μM in the system, EX=350nm, EM=475nm)?
**A.** Its fluorescence intensity is 765.9.

**Q.** And the detection limit ([3]; Zn2+, calculated)?
**A.** The detection limit was 6.05e-08 mol/L.

**Q.** And the “linear range of fluorescence intensity vs Zn2+ concentration” value ([3]; good linear relation, EX=350nm, EM=475nm)?
**A.** Its value is 30 to 70 µM.

**Q.** And the fluorescence intensity ([4]; 100uL Zn2+ plus 100uL Ba2+ (1×10^-2mol/L each))?
**A.** Its fluorescence intensity is 694.5.

**Q.** What about the fluorescence intensity ([4]; 100uL Zn2+ plus equal volume of Ca2+ (1×10^-2mol/L each)) of the same molecule?
**A.** The fluorescence intensity was 914.6.

**Q.** What about the “interference by other metal ions in recognition of Zn2+” value ([4]; other metal ions coexisting with Zn2+) of the same molecule?
**A.** The value was “可避免其它金属离子共存时产生的干扰,可实现对Zn2+的专一性识别”.

**Q.** And the fluorescence intensity [5]?
**A.** The fluorescence intensity was 300.2.
